In patent US9944666B2, “Compounds that are S1P modulating agents and/or ATX modulating agents” (BIOGEN MA INC., priority 2012, dated 2018) one finds IC50 data, which are given here for eleven compounds.

pIC50: −log10 of the molar value.

The target of the test is T1, Human ATX protein (Homo sapiens, UniProt Q13822).
T1 construct: made in house
Briefly: ATX biochemical FRET assay with FS-3 substrate. The note with it: FS-3 2 μM, ATX 1.0 μg/mL, room temperature 2 hours, fluorescence 485/538 nm. Summed up:
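Purified human ATX (1.0 μg/mL final) preincubated with compound 30 min at room temperature in Tris pH 7.4 buffer with NaCl, KCl, CaCl2, MgCl2 and 1 mg/mL fatty acid-free BSA. FS-3 added to 2 μM final; 2 h at room temperature in the dark, fluorescence at ex 485/em 538 nm.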
For the compound `O=C(O)C1CC2CCCC(C1)N2C(=O)c1ccc2c(C(F)(F)F)c(O[C@H]3CC[C@@H](C(F)(F)F)CC3)ccc2c1` (stereo partly drawn) [Example 105, 9-(5-(trifluoromethyl)-6-((cis-4-(trifluoromethyl)cyclohexyl)oxy)-2-naphthoyl)-9-azabicyclo[3.3.1]nonane-3-carboxylic acid], the negative logarithm of the IC50 (pIC50) (as a rule, the IC50 on a negative log10 scale, so that one unit is a factor of ten) was at least 7.00. For `O=C(O)C1CC2CCCC(C1)N2C(=O)Cc1ccc2c(C(F)(F)F)c(O[C@H]3CC[C@@H](C(F)(F)F)CC3)ccc2c1` (stereo partly drawn) [Example 106, 9-(2-(5-(trifluoromethyl)-6-((cis-4-(trifluoromethyl)cyclohexyl)oxy)naphthalene-2-yl)acetyl)-9-azabicyclo[3.3.1]nonane-3-carboxylic acid], the negative-log IC50 (pIC50) is at least 6.30. Compound `C[C@H]1CC[C@@H](Oc2ccc3cc(C(C(=O)O)N4C5CCCC4CCC5)ccc3c2C(F)(F)F)CC1` (stereo partly drawn) [Example 109, 2-(9-Azabicyclo[3.3.1]nonan-9-yl)-2-(6-((cis-4-methylcyclohexyl)oxy)-5-(trifluoromethyl)naphthalen-2-yl)acetic acid] gave a pIC50 of at least 6.60. The compound `CC[C@H]1CC[C@@H](Oc2ccc3cc(CN4C5CCCC4CC(C(=O)O)C5)ccc3c2Cl)CC1` (stereo partly drawn) [Example 110, 9-((5-Chloro-6-((cis-4-ethylcyclohexyl)oxy)naphthalen-2-yl)methyl)-9-azabicyclo[3.3.1]nonane-3-carboxylic acid] gave a pIC50 of at least 7.00. The result for `O=C(O)C1CC2CCCC(C1)N2Cc1ccc2c(Cl)c(O[C@H]3CC[C@@H](C(F)(F)F)CC3)ccc2c1` (stereo partly drawn) [Example 111, 9-((5-Chloro-6-((cis-4-(trifluoromethyl)cyclohexyl)oxy)naphthalen-2-yl)methyl)-9-azabicyclo[3.3.1]nonane-3-carboxylic acid] reads at least 6.60. The result for `O=C(O)C12CCC(NCc3ccc4c(C(F)(F)F)c(OC5CCC(C(F)(F)F)CC5)ccc4c3)(CC1)CC2` (centres unmarked) [Example 144, 3-(4-{[5-trifluoromethyl-6-(4-trifluoromethyl-cyclohexyloxy)-naphthalen-2-ylmethyl]-amino}-bicyclo[2.2.2]oct-1-yl)-carboxylic acid] reads at least 6.30; that for `O=C(O)C1CC2(C1)CN(Cc1ccc3c(C(F)(F)F)c(O[C@H]4CC[C@@H](C(F)(F)F)CC4)ccc3c1)C2` [Example 146, 2-((5-(trifluoromethyl)-6-((cis-4-(trifluoromethyl)cyclohexyl)oxy)naphthalen-2-yl)methyl)-2-azaspiro[3.3]heptane-6-carboxylic acid], at least 6.60; that for `O=C(O)C1CC2CN(Cc3ccc4c(C(F)(F)F)c(OC5CCC(C(F)(F)F)CC5)ccc4c3)CC2C1` (centres unmarked) [Example 154, 3-(5-trifluoromethyl-6-(4-trifluoromethyl-cyclohexyloxy)-naphthalen-2-ylmethyl)-3-azabicyclo[3.3.0]octane-7-carboxylic acid], at least 6.60. The result for `O=C(O)C1CC2CCC(C1)N2C(=O)c1ccc2c(Cl)c(O[C@H]3CC[C@@H](C(F)(F)F)CC3)ccc2c1` (stereo partly drawn) [Example 186, 8-(5-chloro-6-((cis-4-(trifluoromethyl)cyclohexyl)oxy)-2-naphthoyl)-8-azabicyclo[3.2.1]octane-3-carboxylic acid] reads at least 6.60; that for `C[C@H]1CC[C@@H](Oc2ccc3cc(CN4C5CCC4CC(C(=O)O)C5)ccc3c2C#N)CC1` (stereo partly drawn) [Example 188, 8-((5-cyano-6-((cis-4-methylcyclohexyl)oxy)naphthalen-2-yl)methyl)-8-azabicyclo[3.2.1]octane-3-carboxylic acid], at least 6.30. `CC(c1ccc2c(C#N)c(O[C@H]3CC[C@@H](C)CC3)ccc2c1)N1C2CCC1CC(C(=O)O)C2` (stereo partly drawn) [Example 189, 8-(1-(5-cyano-6-((cis-4-methylcyclohexyl)oxy)naphthalen-2-yl)ethyl)-8-azabicyclo[3.2.1]octane-3-carboxylic acid] showed a pIC50 of at least 6.60.
